Activity calls are given as the source filed them. The calls are words filed in the database; no cut-off is given here.
Assays:
Escherichia coli [1] = assay: Bactericidal activity against Escherichia coli ATCC 25922 after 18 hrs by microdilution method; format: functional; conditions: for MBC: ATCC 25922, 18 h, read-out: MBC=>99.9
Escherichia coli [2] = assay: Induction of membrane permeabilization in Escherichia coli ATCC 25922 assessed as loss of pili/flagella at MBC after 1 hr by atomic force microscopic method; format: functional
Escherichia coli [3] = assay: Antibacterial activity against Escherichia coli ATCC 25922 after 18 hrs by microdilution method; format: functional
Escherichia coli [4] = assay: Induction of membrane permeabilization in Escherichia coli ATCC 25922 assessed as loss of pili/flagella at MIC after 1 hr by atomic force microscopic method; format: functional
Escherichia coli [5] = assay: Induction of membrane permeabilization in Escherichia coli ATCC 25922 assessed as propidium iodide uptake preincubated up to 60 mins followed by propidium iodide addition by flow cytometry; format: functional
Staphylococcus aureus [6] = assay: Bactericidal activity against Staphylococcus aureus ATCC 25923 after 18 hrs by microdilution method; format: functional; conditions: ATCC 25923, 18 h, read-out: MBC=>99.9
Pseudomonas aeruginosa [7] = assay: Bactericidal activity against clinical isolates of Pseudomonas aeruginosa after 18 hrs by microdilution method; format: functional; conditions: read-out: MBC=>99.9
Staphylococcus aureus [8] = assay: Antibacterial activity against clinical isolates of Staphylococcus aureus after 18 hrs by microdilution method; format: functional
Pseudomonas aeruginosa [9] = assay: Antibacterial activity against Pseudomonas aeruginosa ATCC 27853 after 18 hrs by microdilution method; format: functional; conditions: ATCC 27853, 18 h
Acinetobacter baumannii [10] = assay: Bactericidal activity against Acinetobacter baumannii ATCC 19606 after 18 hrs by microdilution method; format: functional; conditions: ATCC 19606 = CIP 70.34 = JCM 6841, 18 h, read-out: MBC=>99.9
Klebsiella pneumoniae [11] = assay: Bactericidal activity against clinical isolates of Klebsiella pneumoniae after 18 hrs by microdilution method; format: functional; conditions: read-out: MBC=>99.9
Klebsiella pneumoniae [12] = assay: Bactericidal activity against Klebsiella pneumoniae ATCC 13883 after 18 hrs by microdilution method; format: functional; conditions: ATCC 13883, 18 h, read-out: MBC=>99.9
Escherichia coli [13] = assay: Antibacterial activity against clinical isolates of Escherichia coli after 18 hrs by microdilution method; format: functional
Klebsiella pneumoniae [14] = assay: Antibacterial activity against Klebsiella pneumoniae ATCC 13883 after 18 hrs by microdilution method; format: functional; conditions: ATCC 13883, 18 h
Pseudomonas aeruginosa [15] = assay: Antibacterial activity against clinical isolates of Pseudomonas aeruginosa after 18 hrs by microdilution method; format: functional
Acinetobacter baumannii [16] = assay: Antibacterial activity against Acinetobacter baumannii ATCC 19606 after 18 hrs by microdilution method; format: functional; conditions: ATCC 19606 = CIP 70.34 = JCM 6841, 18 h
Acinetobacter baumannii [17] = assay: Bactericidal activity against clinical isolates of Acinetobacter baumannii after 18 hrs by microdilution method; format: functional; conditions: read-out: MBC=>99.9
Escherichia coli [18] = assay: Induction of membrane permeabilization in Escherichia coli ATCC 25922 assessed as loss of pili/flagella up to 128 uM after 1 hr by atomic force microscopic method; format: functional
Escherichia coli [19] = assay: Bactericidal activity against clinical isolates of Escherichia coli after 18 hrs by microdilution method; format: functional; conditions: read-out: MBC=>99.9
Escherichia coli [20] = assay: Growth inhibition of Escherichia coli ATCC 25922 measured every 10 mins for 4 hrs; format: functional
Escherichia coli [21] = assay: Induction of membrane permeabilization in Escherichia coli ATCC 25922 assessed as propidium iodide uptake at 0.25 to 1 times MIC preincubated up to 60 mins followed by propidium iodide addition by flow cytometry relative to control; format: functional
Escherichia coli [22] = assay: Induction of membrane permeabilization in Escherichia coli ATCC 25922 assessed as surface indentations at MIC after 1 hr by atomic force microscopic method; format: functional
Klebsiella pneumoniae [23] = assay: Antibacterial activity against clinical isolates of Klebsiella pneumoniae after 18 hrs by microdilution method; format: functional
Staphylococcus aureus [24] = assay: Growth inhibition of Staphylococcus aureus ATCC 25923 measured every 10 mins for 4 hrs; format: functional
Escherichia coli [25] = assay: Induction of membrane permeabilization in Escherichia coli ATCC 25922 assessed as bleb formation at MIC after 1 hr by atomic force microscopic method; format: functional
Escherichia coli [26] = assay: Induction of membrane permeabilization in Escherichia coli ATCC 25922 assessed as massive cell disruption/collapse at MBC after 1 hr by atomic force microscopic method; format: functional
Pseudomonas aeruginosa [27] = assay: Bactericidal activity against Pseudomonas aeruginosa ATCC 27853 after 18 hrs by microdilution method; format: functional; conditions: ATCC 27853, 18 h, read-out: MBC=>99.9
Acinetobacter baumannii [28] = assay: Antibacterial activity against clinical isolates of Acinetobacter baumannii after 18 hrs by microdilution method; format: functional
Staphylococcus aureus [29] = assay: Antibacterial activity against Staphylococcus aureus ATCC 25923 after 18 hrs by microdilution method; format: functional; conditions: ATCC 25923, 18 h
Escherichia coli [30] = assay: Induction of membrane permeabilization in Escherichia coli ATCC 25922 assessed as formation of pores/cavities at MIC after 1 hr by atomic force microscopic method; format: functional
Staphylococcus aureus [31] = assay: Bactericidal activity against clinical isolates of Staphylococcus aureus after 18 hrs by microdilution method; format: functional; conditions: read-out: MBC=>99.9
[32] = Selectivity index, ratio of HC50 for human RBC to MIC for Staphylococcus aureus ATCC 25923
[33] = Selectivity index, ratio of HC50 for human RBC to MIC for Staphylococcus aureus
[34] = Selectivity index, ratio of HC50 for human RBC to MIC for Klebsiella pneumoniae ATCC 13883
[35] = Selectivity index, ratio of HC50 for human RBC to MIC for Escherichia coli
[36] = Selectivity index, ratio of HC50 for human RBC to MIC for Klebsiella pneumoniae
[37] = Selectivity index, ratio of HC50 for human RBC to MIC for Pseudomonas aeruginosa ATCC 27853
[38] = Selectivity index, ratio of HC50 for human RBC to MIC for Escherichia coli ATCC 25922
[39] = Selectivity index, ratio of HC50 for human RBC to MIC for Pseudomonas aeruginosa
[40] = Selectivity index, ratio of HC50 for human RBC to MIC for Acinetobacter baumannii
Escherichia coli [41] = assay: Induction of membrane permeabilization in Escherichia coli ATCC 25922 assessed as propidium iodide uptake at MIC preincubated for 15 mins followed by propidium iodide addition by flow cytometry relative to control; format: functional
[42] = Selectivity index, ratio of HC50 for human RBC to MIC for Acinetobacter baumannii ATCC 19606
Escherichia coli [43] = assay: Ratio of MIC to IC50 for Escherichia coli ATCC 25922; format: functional

Substance | Activity (Escherichia coli [2]) | IC50 (Escherichia coli [5]) | MBC (Staphylococcus aureus [6]) | MBC (Pseudomonas aeruginosa [7]) | MBC (Escherichia coli [1]) | MIC (Staphylococcus aureus [8]) | MIC (Pseudomonas aeruginosa [9]) | MBC (Acinetobacter baumannii [10]) | MBC (Klebsiella pneumoniae [11]) | MBC (Klebsiella pneumoniae [12]) | MIC (Escherichia coli [13]) | MIC (Escherichia coli [3]; ATCC 25922, 18 h) | MIC (Klebsiella pneumoniae [14]) | MIC (Pseudomonas aeruginosa [15]) | MIC (Acinetobacter baumannii [16]) | MBC (Acinetobacter baumannii [17]) | MBC (Escherichia coli [19]) | IC50 (Escherichia coli [20]) | Activity (Escherichia coli [22]) | MIC (Klebsiella pneumoniae [23]) | also measured
COLISTIN | Active |  |  |  |  |  |  |  |  |  |  |  |  |  |  |  |  |  |  |  | MBC=>99.9 (Escherichia coli [1]): 0.5 µM; MIC (Escherichia coli [3]): 0.5 µM; Activity (Escherichia coli [4]): Active
H-KIAGKAGKIAKIAGKAGKIA-NH2 | Active | > 128000 nM | > 64 µM | > 64 µM | > 64 µM | > 64 µM | > 64 µM | > 64 µM | > 64 µM | > 64 µM | > 64 µM | > 64 µM | > 64 µM | > 64 µM | > 64 µM | > 64 µM | > 64 µM | > 128000 nM | Active | > 64 µM | Activity (Escherichia coli [18]): inactive; Activity (Escherichia coli [21]): <5%; IC50 (Staphylococcus aureus [24]): > 128000 nM; Activity (Escherichia coli [25]): Active; Activity (Escherichia coli [26]): Active; MBC (Pseudomonas aeruginosa [27]): > 64 µM; MIC (Acinetobacter baumannii [28]): > 64 µM; MIC (Staphylococcus aureus [29]): > 64 µM; Activity (Escherichia coli [30]): Active; MBC (Staphylococcus aureus [31]): > 64 µM
H-KIAKGALKALKIAKGALKAL-NH2 | Active | 600 nM | 32 µM | 16 µM | 16 µM | 16 µM | 8 to 16 µM | 2 µM | 16 µM | 4 µM | 64 µM | 4 µM | 2 to 4 µM | 8 to 16 µM | 1 to 2 µM | > 64 µM | > 64 µM | 300 nM | Active | 8 µM | Selectivity Index [32]: 3 to 6; Selectivity Index [33]: 6; Selectivity Index [34]: 25 to 50; Selectivity Index [35]: < 1; Selectivity Index [36]: 12; Selectivity Index [37]: 6 to 12; Selectivity Index [38]: 25; Selectivity Index [39]: 6 to 12; Selectivity Index [40]: < 1; IC50 (Staphylococcus aureus [24]): 1600 nM; Activity (Escherichia coli [25]): Active; Activity (Escherichia coli [26]): Active; MBC (Pseudomonas aeruginosa [27]): 16 to 32 µM; Activity (Escherichia coli [41]): >80%; MIC (Acinetobacter baumannii [28]): > 64 µM; Selectivity Index [42]: 50 to 100; MIC (Staphylococcus aureus [29]): 16 to 32 µM; Activity (Escherichia coli [30]): Active; MBC (Staphylococcus aureus [31]): 16 µM; Ratio (Escherichia coli [43]): >10

Reference: ChEMBL document CHEMBL4020848, “Antibacterial Activity Affected by the Conformational Flexibility in Glycine-Lysine Based α-Helical Antimicrobial Peptides” (J Med Chem, 2018)
